Assay results reported in patent publication US9140688B2, “Sperm staining and sorting methods” (INGURAN, LLC, priority 2011, dated 2015).

Experiments:
Type in all cases: cell-based
[1] = tested on: bovine sperm; assay: Post thaw motility of sex sorted, frozen-thawed bovine sperm (Example 1); details: average over all bulls, Red with 16-17 μl, Yellow with 14-15 μl Hoechst 33342 per 2 ml; for Post thaw motility, average 0 Hour: dye 20 g/L in second TALP
Description: (§1) Sperm was collected from 10 different bulls on a routine collection schedule using an artificial vagina over the course of 4 days. The 10 bulls included both Jersey bulls and Holstein bulls. All ejaculates contained greater than 60% progressive motility and greater than 70% morphological normal sperm. Antibiotics were added within 15 minutes of collection.
(§2) Red food dye treatment 40% —A reduced volume of red food dye No. 40 control was established. Sperm was diluted to 160×10^6 sperm per ml in a modified TALP buffer, as described in Table 1, at a pH of 7.4. Samples collected from Jersey bulls were incubated with 16 μl of Hoechst 33342 per 2 ml of sample for between 45 and 60 minutes at 34° C., while samples collected from Holstein bulls were incubated 17 μl of Hoechst 33342 per 2 ml of sample for between 45 and 60 minutes at 34° C. After incubation an equal volume of a second modified TALP was added reducing the concentration to 80×10^6. The second modified TALP includes the components described in Table 1 with the addition of 4% egg yolk, 40 μM red food dye No. 40 (20 g/L) and the pH dropped to 5.5 with HCl.
Yellow Food dye treatment—Yellow food dye was included in a second group at an equal concentration. Sperm was diluted to 160×10^6 sperm per ml in a modified TALP buffer, as described in Table 1, at a pH of 7.4. Samples collected from Jersey bulls were incubated with 14 μl of Hoechst 33342 per 2 ml of sample for between 45 and 60 minutes at 34° C., while sample collected from Holstein bulls were incubated 15 μl of Hoechst 33342 per 2 ml of sample for between 45 and 60 minutes at 34° C. After incubation an equal volume of a second modified TALP was added reducing the concentration to 80×10^6. The second modified TALP includes the components described in Table 1 with the addition 4% egg yolk, 20 g/L yellow food dye No. 6 and a pH dropped to 5.5 with HCl.
Just prior to sorting, each sample was filtered though a 40 μm nylon mesh. Each sample was sorted with an MoFlo SX XDP (Beckman Coulter, Inc., CA USA) operating at 40 psi. A tris-citrate-fructose sheath fluid was used comprising Tris(hydroxymethyl)aminomethane (Sigma Chemical Co, St. Louis, Mo., USA) citric acid monohydrate (Sigma Chemical Co, St. Louis, Mo., USA) and fructose (Sigma Chemical Co, St. Louis, Mo., USA). Antibiotics were additionally added to the sheath fluid.
Unquenched sperm having the desired sex characteristics were collected into a single tube with a tris-egg yolk catch fluid and the remaining sperm was removed with waste. […]
(§3) Straws were thawed the following day for motility measurements at 0 hour and 3 hours. Percent intact acrosomes were measured as well, and the overall averages over all bulls on each day are illustrated in Table 3. […]

[2] = tested on: canine sperm; assay: Post thaw motility of sex sorted canine sperm on CASA (Example 4); details: for Motile, average / Progressive, average: 0 Hr post thaw
Description: Sperm was collected from a single canine at room temperature into CaniPro Chill 5, available from Minitube, Wis., USA, then centrifuged into a pellet and resuspended in a Tris buffer at a pH of 6.8.
Samples were extended to 40×10^6 sperm/ml in 1 ml volumes with the Tris buffer described in Example 1 but set to a pH of 7.2. Ten samples were then stained 4, 4, 5, 5, 7, 8, 8, 9, 9, and 10 μL of Hoechst 33342 and quenched with one of two quenching dyes at a concentration of 50 μM in a second buffer Tris buffer.
Red food dye No. 40 quencher—1 ml Tris at a pH 6.3 was added with red food dye No. 40 into samples stained with 4, 5, 8, 9, 10 μL Hoechst 33342. The red food dye No. 40 was added at a concentration of about 50 μM.
Yellow food dye No. 6 quencher—1 ml Tris at a pH 6.3 was added with yellow food dye No. 6 into samples stained with 4, 5, 7, 8, 9 μL Hoechst 33342. The yellow food dye No. 6 was added at the same concentration as the red food dye No. 40 quencher, at about 50 μM.
5 million cells were sex sorted with a MoFlo SX XPD into 50 mL Falcon tubes having 3.5 mL of a Tris-egg yolk catch fluid, described in Example 1 for both X and Y populations. Two samples were sorted, the red food dye No. 40 quenched treatment with 9 μL Hoechst 33342 and the yellow food dye […] quenched treatment with 7 μL Hoechst 33342.
Straws were then frozen and stored in liquid nitrogen.
Straws were thawed for 30 sec in a 38° C. water bath and their motilities were examined on CASA.
Table 12 illustrates the average motilities and progressive motilities for the sorted treatments. Canine sperm quenched with yellow food dye No. 6 provided about 4.5% more motile sperm in the X population and 6.5% more motile sperm in the Y population. Similarly, the yellow quenched dye provided 7% better progressive motility in the X population and 8% better progressive motility in the Y population.

[3] = tested on: bovine sperm; assay: Post thaw percent intact acrosomes (PIA) of sex sorted bovine sperm (Example 1); details: average over all bulls
Description: as §1
as §2, with “HCl. […]” for “HCl.”
as §3

Structure (SMILES)	Post thaw motility, average 3 Hour [1]	Post thaw motility, average 0 Hour [1]	Motile, average ([2]; X population)	Progressive, average ([2]; X population)	Motile, average ([2]; Y population)	Progressive, average ([2]; Y population)	Average PIA (percent intact acrosomes) [3]	better progressive motility than with red quencher ([2]; X population)	more motile sperm than with red quencher ([2]; X population)	better progressive motility than with red quencher ([2]; Y population)	more motile sperm than with red quencher ([2]; Y population)
COc1cc(S(=O)(=O)O)c(C)cc1N=Nc1c(O)ccc2cc(S(=O)(=O)O)ccc12 [Red 40, 6-hydroxy-5-[(2-methoxy-5-methyl-4-sulfophenyl)azo]-2-naphthalenesulfonic acid, reference compound]	47.0%	56.6%	19.5	11.5	18.5	13	70.8%	–	–	–	–
O=S(=O)([O-])c1ccc(N=Nc2c(O)ccc3cc(S(=O)(=O)[O-])ccc23)cc1.[Na+].[Na+] [Yellow 6, Disodium 6-hydroxy-5-[(4-sulfophenyl)azo]-2-naphthalenesulfononate]	49.0%	57.7%	24	18.5	25	21	71.3%	7%	about 4.5%	8%	6.5%
